# Laboratory results: patent publication US4351954A (priority 1979, dated 1982)
# Legend:
# [1] = tested on: bacterial leaf blight (Xanthomonas oryzae Dowson); type: cell-based; settings: paper discs immersed in 500-ppm aqueous solution; after two days; qualitative
# [2] = tested on: blast (Pyricularia oryzae Cavara); type: cell-based; settings: paper discs immersed in 500-ppm aqueous solution; after two days; qualitative
# [3] = tested on: pickerelweed (Monochloria vaginalis var. plantaginea); assay: Herbicidal activity, miniature paddy field; type: in vivo; settings: 1% aqueous solution, after 15 days
# Source text: (§1) Paddy-field soil kneaded in a concrete mixer was placed in 500-ml plastic beakers. Seeds of barnyardgrass (Echinochloa crusgalli Beauv.) were scattered on the soil and incorporated in the soil to a depth of about 2 cm from the surface. Afterward, the seeds of pickerelweed (Monochloria vaginalis var. plantaginea) and purple loosestrife (Lythrum anceps) were scattered on the surface of soil. Then, slender spikerush (Eleocharis acicularis) and rice were transplanted to the soil. The soil in the beakers was inundated to a depth of about 3 cm. After two days, 1% aqueous solution of CF2 ClCFClCH2 CH(NH2)CO2 H and CF2 BrCF2 CH2 CH(NH2)CO2 H were applied to the soil in the beakers at dosage rates of 1000 g, 500 g, and 250 g per 10 acres with the aid of a pipet. After 15 days, the miniature paddy fields were examined.
# [4] = tested on: purple loosestrife (Lythrum anceps); assay: Herbicidal activity, miniature paddy field; type: in vivo; settings: 1% aqueous solution, after 15 days
# Source text: as §1
# [5] = tested on: diamondback moths (Plutella maculipennis Curtis); assay: Insecticidal activity, treated cabbage leaves fed to moths; type: in vivo; settings: 240 h, cabbage leaves immersed in 500-ppm aqueous solution, after 10 days, read-out: insects dead
# Source text: Cabbage leaves were immersed in a 500-ppm aqueous CF2 BrCF2 CH2 CH(NH2)CO2 H solution, removed from the solution and dried. They were placed in a Petri dish, in which a group of diamondback moths (Plutella maculipennis Curtis) were fed on the cabbage leaves. After 10 days, 70% of the insects were dead. When the same number of diamondback moths were fed on cabbage leaves which had not been given the treatment, only 10% of the insects were dead after 10 days.
# [6] = tested on: black spot (Alternaria kikuchiana Tanka); type: cell-based
# [7] = tested on: melanose (Diaporthe citri Wolf); type: cell-based
# acid phosphatase = assay: Enzyme inhibiting activity; type: biochemical; settings: pH 5, 37° C. for 20 minutes
# Procedure: A 2×10^-4 M aqueous solution of fluorine-containing amino acid was prepared by adding a fluorine-containing amino acid, viz. CF2 ClCHFCH2 CH(NH2)CO2 H, dissolved in a small amount of methanol to a mixture consisting of 0.1 cc of a 0.025% aqueous solution of acid phosphatase, 0.1 mol of a substrate, 0.05 cc of DPNP, 0.25 cc of water and a 0.1 N sodium acetate (pH 5) as a buffer. The resultant mixture was incubated at 37° C. for 20 minutes. At the end of the 20 minutes, the reaction proceeding in the mixture was stopped by adding 3 cc of an aqueous NaOH solution to the mixture. The mixture was assayed for absorption at a wavelength of 422 mμ.
# When the procedure was repeated by using a 1×10^-3 M aqueous solution of CF2 ClCFClCH(CH3)CH(NH2)CO2 H, the enzyme inhibition ratio was 37%.
SMILES,growth of the germs of bacterial leaf blight [1],growth of the germs of blast [2],destruction of pickerelweed ([3]; 250 g per 10 acres),destruction of pickerelweed ([3]; 500 g per 10 acres),destruction of pickerelweed ([3]; 1000 g per 10 acres),destruction of purple loosestrife ([4]; 250 g per 10 acres),destruction of purple loosestrife ([4]; 500 g per 10 acres),destruction of purple loosestrife ([4]; 1000 g per 10 acres),mortality at 500 µg/mL [5] [%],growth of the germs of black spot [6],growth of the germs of melanose [7],"enzyme inhibition ratio (acid phosphatase; 1×10^-3 M, 1000 µM) [%]",enzyme inhibition (acid phosphatase; 2×10^-4 M) [%]
"NC(CC(F)(F)C(F)(F)Br)C(=O)O (stereo not shown) [CF2 BrCF2 CH2 CH(NH2)CO2 H, 2-amino-4,4,5,5-tetrafluoro-5-bromopentanoic acid]",impeded the growth,impeded the growth,half destroyed,half destroyed,completely destroyed,half destroyed,half destroyed,completely destroyed,70,–,–,–,–
NC(CC(F)(Cl)C(F)(F)Cl)C(=O)O (stereo not shown) [CF2 ClCFClCH2 CH(NH2)CO2 H],–,–,completely destroyed,completely destroyed,completely destroyed,completely destroyed,completely destroyed,completely destroyed,–,impeded the growth,impeded the growth,–,–
"CC(C(N)C(=O)O)C(F)(Cl)C(F)(F)Cl (stereo not shown) [CF2 ClCFClCH(CH3)CH(NH2)CO2 H, 2-amino-3-methyl-4,5-dichloro-4,5,5-trifluoropentanoic acid]",–,–,–,–,–,–,–,–,–,–,–,37,–
"NC(CC(F)C(F)(F)Cl)C(=O)O (stereo not shown) [CF2 ClCHFCH2 CH(NH2)CO2 H, 2-amino-4,5,5-trifluoro-5-chloropentanoic acid]",–,–,–,–,–,–,–,–,–,–,–,–,58
